Where a name gives a salt, the structure may show the parent alone.
What follows are compounds tested against T1, hROMK (hKir1.1) (Homo sapiens, UniProt P48048) (assay: Thallium Flux Assay (ROMK channel functional thallium flux, FLIPR-Tetra)). Conditions: HEK293 cells stably expressing hROMK (hKir1.1); 30 min incubation with compound; HCl salt run where final product was an HCl salt.
T1 construct: expressed in transfected cells
T1 sequence (P48048 1-391): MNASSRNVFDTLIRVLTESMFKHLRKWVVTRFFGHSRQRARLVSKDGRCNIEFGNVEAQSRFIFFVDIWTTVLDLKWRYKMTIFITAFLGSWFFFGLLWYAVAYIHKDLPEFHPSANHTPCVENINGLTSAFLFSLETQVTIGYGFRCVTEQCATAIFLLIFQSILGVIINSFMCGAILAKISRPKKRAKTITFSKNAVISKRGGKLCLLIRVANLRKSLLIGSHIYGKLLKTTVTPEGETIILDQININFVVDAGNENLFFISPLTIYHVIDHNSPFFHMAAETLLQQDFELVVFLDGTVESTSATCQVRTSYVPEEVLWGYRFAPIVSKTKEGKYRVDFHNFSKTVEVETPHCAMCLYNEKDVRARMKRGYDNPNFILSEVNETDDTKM
Type: cell-based
Method: The following Thallium Flux Assay was performed on each of the final product compounds in the Examples. When the final product of an Example was an HCl salt, the salt was run in the Assay.
Cell Culture Conditions—HEK293 cells stably expressing hROMK (hKir1.1) were grown at 37° C. in a 10% CO2 humidified incubator in complete growth media: Dulbecco's Modified Eagle Medium supplemented with non-essential amino acids, Penicillin/Streptomycin/Glutamine, G418 and FBS. At >80% confluency, aspirate the media from the flask and rinse with 10 mL Calcium/Magnesium-free PBS. Add 5 mL of 1× trypsin (prepared in Ca/Mg Free PBS) to T-225 flask and return flask to 37° C./CO2 incubator for 2-3 minutes. To dislodge the cell, gently bang the side of the flask with your hand. Triturate the cells completely and then transfer the cells to 25 mL complete media. Centrifuge at 1,500 rpm for 6 min followed by resuspension in complete growth media and determine cell concentration. For typical re-seeding, 4E6 cells/T-225 flask will attain >80% confluency in 4 days. Under ideal growth conditions and appropriate tissue culture practices, this cell line is stable for 40-45 passages.
FluxOR Kit Components (Invitrogen F10017)
• FluxOR™ Reagent (Component A) • FluxOR™ Assay Buffer (Component B)—10× Concentrate • PowerLoad™ Concentrate (Component C)—100× Concentrate • Probenecid (Component D)—Lyophilized sample is kept at −20° C. Water soluble, 100× after solubilization in 1 mL water. Store at 4° C. • FluxOR™ Chloride-free Buffer (Component E)—5× Concentrate • Potassium sulfate (K2SO4) Concentrate (Component F)—125 mM in water. Store at 4° C. • Thallium sulfate (T12SO4) Concentrate (Component G)—50 mM in water. Store at 4° C. • DMSO (dimethyl sulfoxide, Component H)—1 mL (100%) Reagent Preparation: FluxOR Working Solutions • 1000× FluxOR™ Reagent: Reconstitute a vial of component A in 100 μl DMSO; Mix well; Store 10 μl aliquots at −20° C. • 1× FluxOR™ Assay Buffer: Dilute Component B 10-fold with water; Adjust pH to 7.4 with Hepes/NaOH; Filter and store at 4° C. • Probenecid/Assay Buffer: 100 mL of 1× FluxOR™ Assay Buffer; 1 mL of reconstituted component D; Store at 4° C. • Loading Buffer (per microplate): 10 μl 1000× FluxOR™ Reagent; 100 μl component C; 10 mL Probenecid/Assay Buffer • Compound Buffer (per microplate): 20 mL Probenecid/Assay Buffer; 0.3 mM ouabain (10 mM ouabain in water can be stored in amber bottle/aluminum foil at room temperature); Test compound • 1× FluxOR™ Chloride-Free Buffer: Prepare 1× working solution in water. Can be stored at room temperature • Stimulant Buffer (prepared at 5× final concentration in 1× FluxOR™ Chloride-Free Buffer): 7.5 mM Thallium sulfate and 0.75 mM Potassium sulfate (to give a final assay concentration of 3 mM Thallium/0.3 mM Potassium). Store at 4° C. when not in use.
Assay protocol—The ROMK channel functional thallium flux assay is performed in 384 wells, using the FLIPR-Tetra instrument. HEK-hKir1.1 cells are seeded in Poly-D-Lysine microplates and kept in a 37° C.-10% CO2 incubator overnight. On the day of the experiment, the growth media is replaced with the FluxOR™ reagent loading buffer and incubated, protected from light, at ambient temperature (23-25° C.) for 90 min. The loading buffer is replaced with assay buffer±test compound followed by 30 min incubation at ambient temperature, where the Thallium/Potassium stimulant is added to the microplate.
• 1. Seed HEK-hKir1.1 cells (50 μl at 20,000 cells/well) in 384-well PDL coated Microplates • 2. Allow cells to adhere overnight in humidified 37° C./10% CO2 incubator • 3. Completely remove cell growth media from microplate and replace with 25 μl loading buffer • 4. Incubate Microplate at room temperature, protected from light, for 90 min • 5. Remove loading buffer and replace with 25 μl 1× Assay Buffer±test compound. • 6. Incubate microplate at room temperature, protected from light, for 30 min • 7. […]

Question: `COc1nsc(N(C)C(=O)C2CCN(C[C@H](O)c3ccc4c(c3C)COC4=O)CC2)n1` [Example 45, (R)-1-(2-hydroxy-2-(4-methyl-1-oxo-1,3-dihydroisobenzofuran-5-yl)ethyl)-N-(3-methoxy-1,2,4-thiadiazol-5-yl)-N-methylpiperidine-4-carboxamide] was tested. Which IC50 did it give?
Answer: Its IC50 is 250 nM.

Question: `Cc1c([C@@H](O)CN2CCC(N)(C(=O)Nc3ccns3)CC2)ccc2c1COC2=O` [Example 46, 4-amino-1-[(2R)-2-hydroxy-2-(4-methyl-1-oxo-1,3-dihydro-2-benzofuran-5-yl)ethyl]-N-(isothiazol-5-yl)piperidine-4-carboxamide hydrochloride] was tested. Which IC50 did it give?
Answer: Its IC50 is 50 nM.

Question: Which IC50 does the source give for `Cc1c([C@@H](O)CN2CCC(F)(C(=O)Nc3ccns3)CC2)ccc2c1COC2=O` [Example 47, 4-fluoro-1-[(2R)-2-hydroxy-2-(4-methyl-1-oxo-1,3-dihydro-2-benzofuran-5-yl)ethyl]-N-(isothiazol-5-yl)piperidine-4-carboxamide] here?
Answer: The IC50 was 60 nM.

Question: How did the IC50 turn out when `Cc1cc(NC(=O)C2(F)CCN(C[C@H](O)c3ccc4c(c3C)COC4=O)CC2)sn1` [Example 48, (R)-4-fluoro-1-(2-hydroxy-2-(4-methyl-1-oxo-1,3-dihydroisobenzofuran-5-yl)ethyl)-N-(3-methylisothiazol-5-yl)piperidine-4-carboxamide] was run?
Answer: The IC50 was 40 nM.

Question: How did the IC50 turn out when `Cc1c([C@@H](O)CN2CCC(F)(C(=O)N3CCc4cnccc43)CC2)ccc2c1COC2=O` [Example 49, (R)-5-(2-(4-(2,3-dihydro-1H-pyrrolo[3,2-c]pyridine-1-carbonyl)-4-fluoropiperidin-1-yl)-1-hydroxyethyl)-4-methylisobenzofuran-1(3H)-one] was run?
Answer: The IC50 was 200 nM.

Question: Which IC50 does the source give for `Cc1c([C@@H](O)CN2CCC(F)(C(=O)Nc3cnsc3)CC2)ccc2c1COC2=O` [Example 50, (R)-4-fluoro-1-(2-hydroxy-2-(4-methyl-1-oxo-1,3-dihydroisobenzofuran-5-yl)ethyl)-N-(isothiazol-4-yl)piperidine-4-carboxamide] here?
Answer: Its IC50 is 370 nM.

Question: With `Cc1nc(NC(=O)C2(F)CCN(C[C@H](O)c3ccc4c(c3C)COC4=O)CC2)ccc1C#N` [Example 51, (R)-N-(5-cyano-6-methylpyridin-2-yl)-4-fluoro-1-(2-hydroxy-2-(4-methyl-1-oxo-1,3-dihydroisobenzofuran-5-yl)ethyl)piperidine-4-carboxamide] as the compound, how does the IC50 read?
Answer: Its IC50 is 220 nM.

Question: For `Cc1c([C@@H](O)CN2CCC(F)(C(=O)Nc3ccc(C#N)cn3)CC2)ccc2c1COC2=O` [Example 52, (R)-N-(5-cyanopyridin-2-yl)-4-fluoro-1-(2-hydroxy-2-(4-methyl-1-oxo-1,3-dihydroisobenzofuran-5-yl)ethyl)piperidine-4-carboxamide], which IC50 is on record?
Answer: The IC50 was 260 nM.

Question: For `Cc1c([C@@H](O)CN2CCC(F)(C(=O)Nc3cnns3)CC2)ccc2c1COC2=O` [Example 53, (R)-4-fluoro-1-(2-hydroxy-2-(4-methyl-1-oxo-1,3-dihydroisobenzofuran-5-yl)ethyl)-N-(1,2,3-thiadiazol-5-yl)piperidine-4-carboxamide], which IC50 is on record?
Answer: Its IC50 is 260 nM.

Question: `Cc1c([C@@H](O)CN2CC3C(C2)C3C(=O)Nc2ccns2)ccc2c1COC2=O` (stereo partly drawn) [Example 54, 3-[(2R)-2-hydroxy-2-(4-methyl-1-oxo-1,3-dihydro-2-benzofuran-5-yl)ethyl]-N-(isothiazol-5-yl)-3-azabicyclo[3.1.0]hexane-6-carboxamide] was tested. Which IC50 did it give?
Answer: The IC50 was 160 nM.

Question: For `Cc1cc(NC(=O)C2C3CN(C[C@H](O)c4ccc5c(c4C)COC5=O)CC32)sn1` (stereo partly drawn) [Example 55, 3-((R)-2-hydroxy-2-(4-methyl-1-oxo-1,3-dihydroisobenzofuran-5-yl)ethyl)-N-(3-methylisothiazol-5-yl)-3-azabicyclo[3.1.0]hexane-6-carboxamide], which IC50 is on record?
Answer: The IC50 was 60 nM.

Question: Which IC50 does the source give for `Cc1nsc(NC(=O)C2C3CN(C[C@H](O)c4ccc5c(c4C)COC5=O)CC32)n1` (stereo partly drawn) [Example 56, 3-((R)-2-hydroxy-2-(4-methyl-1-oxo-1,3-dihydroisobenzofuran-5-yl)ethyl)-N-(3-methyl-1,2,4-thiadiazol-5-yl)-3-azabicyclo[3.1.0]hexane-6-carboxamide] here?
Answer: Its IC50 is 350 nM.

Question: `COc1nsc(NC(=O)C2C3CN(C[C@H](O)c4ccc5c(c4C)COC5=O)CC32)n1` (stereo partly drawn) [Example 57, 3-((R)-2-hydroxy-2-(4-methyl-1-oxo-1,3-dihydroisobenzofuran-5-yl)ethyl)-N-(3-methoxy-1,2,4-thiadiazol-5-yl)-3-azabicyclo[3.1.0]hexane-6=carboxamide] was tested. Which IC50 did it give?
Answer: The IC50 was 310 nM.

Question: How did the IC50 turn out when `Cc1c([C@@H](O)CN2CC3C(C2)C3C(=O)Nc2cnsc2)ccc2c1COC2=O` (stereo partly drawn) [Example 58, 3-((R)-2-hydroxy-2-(4-methyl-1-oxo-1,3-dihydroisobenzofuran-5-yl)ethyl)-N-(isothiazol-4-yl)-3-azabicyclo[3.1.0]hexane-6-carboxamide] was run?
Answer: Its IC50 is 280 nM.

Question: `Cc1c([C@@H](O)CN2CC3C(C2)C3C(=O)Nc2ccc(C#N)cn2)ccc2c1COC2=O` (stereo partly drawn) [Example 59, N-(5-cyanopyridin-2-yl)-3-((R)-2-hydroxy-2-(4-methyl-1-oxo-1,3-dihydroisobenzofuran-5-yl)ethyl)-3-azabicyclo[3.1.0]hexane-6-carboxamide] was tested. Which IC50 did it give?
Answer: Its IC50 is 400 nM.

Question: How did the IC50 turn out when `Cc1c([C@@H](O)CN2CC3C(C2)C3C(=O)Nc2ccc(-n3cnnn3)cn2)ccc2c1COC2=O` (stereo partly drawn) [Example 60, N-(5-(1H-tetrazol-1-yl)pyridin-2-yl)-3-((R)-2-hydroxy-2-(4-methyl-1-oxo-1,3-dihydroisobenzofuran-5-yl)ethyl)-3-azabicyclo[3.1.0]hexane-6-carboxamide] was run?
Answer: The IC50 was 470 nM.

Question: For `Cc1c([C@@H](O)CN2CC3C(C2)C3C(=O)N(C)c2ccns2)ccc2c1COC2=O` (stereo partly drawn) [Example 61, 3-((R)-2-hydroxy-2-(4-methyl-1-oxo-1,3-dihydroisobenzofuran-5-yl)ethyl)-N-(isothiazol-5-yl)-N-methyl-3-azabicyclo[3.1.0]hexane-6-carboxamide], which IC50 is on record?
Answer: The IC50 was 140 nM.

Question: How did the IC50 turn out when `Cc1nsc(N(C)C(=O)C2C3CN(C[C@H](O)c4ccc5c(c4C)COC5=O)CC32)n1` (stereo partly drawn) [Example 62, 3-((R)-2-hydroxy-2-(4-methyl-1-oxo-1,3-dihydroisobenzofuran-5-yl)ethyl)-N-methyl-N-(3-methyl-1,2,4-thiadiazol-5-yl)-3-azabicyclo[3.1.0]hexane-6-carboxamide] was run?
Answer: The IC50 was 170 nM.
